Reference: patent US10370343B2, “[6,6] Fused bicyclic HDAC8 inhibitors” (FORMA Therapeutics, Inc., priority 2015, dated 2019)
Where a name gives a salt, the structure may show the parent alone.

Each compound was assayed against T1, Full length human recombinant HDAC8 protein (Homo sapiens, UniProt Q9BY41) (assay: In vitro histone deacetylase assay: enzymatic HDAC8 electrophoretic mobility shift assay). Conditions: not given.
T1 construct: Full length human recombinant HDAC8 protein was expressed in baculoviral system; made in house
T1 sequence (Q9BY41 1-377): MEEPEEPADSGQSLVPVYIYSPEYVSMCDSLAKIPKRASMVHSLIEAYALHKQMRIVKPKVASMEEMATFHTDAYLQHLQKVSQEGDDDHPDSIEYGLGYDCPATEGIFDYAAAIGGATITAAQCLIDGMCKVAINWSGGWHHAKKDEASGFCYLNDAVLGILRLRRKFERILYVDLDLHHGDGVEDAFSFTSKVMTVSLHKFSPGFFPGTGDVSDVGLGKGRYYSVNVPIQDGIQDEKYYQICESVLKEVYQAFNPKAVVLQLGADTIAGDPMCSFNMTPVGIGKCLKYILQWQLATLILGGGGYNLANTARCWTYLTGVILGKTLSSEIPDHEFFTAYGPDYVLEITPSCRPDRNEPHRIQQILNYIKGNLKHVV
Assay type: biochemical
Protocol: The enzymatic HDAC8 assay was performed using electrophoretic mobility shift assay. Full length human recombinant HDAC8 protein was expressed in baculoviral system and purified by affinity chromatography. The enzymatic reactions were assembled in 384 well plates in a total volume of 25 μL in a reaction buffer composing: 100 mM HEPES, pH7.5, 25 mM KCl, 0.1% bovine serum albumin, 0.01% Triton X-100, 1% DMSO (from compounds) 2 μM of the fluorescently labeled peptide substrate and enzyme. The enzyme was added at a final concentration of 1 nM. The peptide substrate RHKK(Ac)—NH2 was used. The compounds were tested at 12 concentrations spaced by 3× dilution intervals. Negative control samples (0%-inhibition in the absence of inhibitor) and positive control samples (100%-inhibition) were assembled in replicates of four in each assay plate. The reactions were incubated at 25° C. and quenched by the addition of 45 μL of termination buffer (100 mM HEPES, pH 7.5, 0.01% Triton X-100, 0.05% SDS).
The terminated assay plates were analyzed on LabChip® 3000 microfluidic electrophoresis instrument (Perkin Elmer/Caliper Life Sciences). The fluorescence intensity of the electrophoretically separated de-acetylated product and substrate peptide was measured. Activity in each sample was determined as the product to sum ratio (PSR): P/(S+P), where P is the peak height of the product peptide and S is the peak height of the substrate peptide. Percent inhibition (Pinh) is determined using the following equation: Pinh=(PSR0%−PSRinh)/(PSR0%−PSR100%)*100, where PSRinh is the product sum ratio in the presence of inhibitor, PSR0% is the average product sum ration in the absence of inhibitor and PSR100% is the average product sum ratio in 100%-inhibition control samples. The IC50 values of inhibitors were determined by fitting the %-inhibition curves with 4 parameter dose-response model using XLfit 4 software.
Work on CN(C(=O)CN1C(=O)COc2ccc(C(=O)NO)cc21)C1CC1 [Compound I-51, 4-(2-(cyclopropyl(methyl)amino)-2-oxoethyl)-N-hydroxy-3-oxo-3,4-dihydro-2H-benzo[b][1,4]oxazine-6-carboxamide] yielded an IC50 of 0.1 to 1 µM.

Same assay, conditions: electrophoretic mobility shift assay; enzyme 1 nM; 2 μM fluorescently labeled peptide substrate RHKK(Ac)-NH2; 25° C.; 12 concentrations; read-out: HDAC8 IC50
Work on CC1Oc2ccc(C(=O)NO)cc2N(Cc2ccccc2)C1=O (centres unmarked) [Compound I-153, 4-benzyl-N-hydroxy-2-methyl-3-oxo-3,4-dihydro-2H-benzo[b][1,4]oxazine-6-carboxamide] yielded an IC50 of 0.025 to 0.1 µM. With O=C(NO)c1ccc2c(c1)N(Cc1ccccn1)C(=O)CO2 [Compound I-61, N-hydroxy-3-oxo-4-(pyridin-2-ylmethyl)-3,4-dihydro-2H-benzo[b][1,4]oxazine-6-carboxamide] the IC50 was 0.1 to 1 µM. Compound O=C(NO)c1ccc2c(c1)N(Cc1ccccc1)CC(C(=O)NCc1ccccc1)O2 (centres unmarked) [Compound I-6, N^2,4-dibenzyl-N^6-hydroxy-3,4-dihydro-2H-benzo[b][1,4]oxazine-2,6-dicarboxamide] has an IC50 of 0.025 to 0.1 µM. O=C(NO)c1ccc2c(c1)N(Cc1cccc(C(F)(F)F)c1)C(=O)CO2 [Compound I-144, N-hydroxy-3-oxo-4-(3-(trifluoromethyl)benzyl)-3,4-dihydro-2H-benzo[b][1,4]oxazine-6-carboxamide] was tested, and the IC50 was under 0.025 µM. CC(C)CN1C(=O)COc2ccc(C(=O)NO)cc21 [Compound I-57, N-hydroxy-4-isobutyl-3-oxo-3,4-dihydro-2H-benzo[b][1,4]oxazine-6-carboxamide] showed an IC50 of 0.1 to 1 µM. CS(=O)(=O)c1ccc(CN2CCOc3ccc(C(=O)NO)cc32)c(Cl)c1 [Compound I-134, 4-(2-chloro-4-(methylsulfonyl)benzyl)-N-hydroxy-3,4-dihydro-2H-benzo[b][1,4]oxazine-6-carboxamide] gave an IC50 of under 0.025 µM. O=C(NO)c1ccc2c(c1)N(Cc1nc3ccc(Cl)cc3n1CC1CC1)C(=O)CO2 [Compound I-260, 4-((6-chloro-1-(cyclopropylmethyl)-1H-benzo[d]imidazol-2-yl)methyl)-N-hydroxy-3-oxo-3,4-dihydro-2H-benzo[b][1,4]oxazine-6-carboxamide] gave an IC50 of 0.1 to 1 µM. For Cc1ccc(C(F)(F)F)cc1CN1C(=O)COc2ccc(C(=O)NO)cc21 [Compound I-72, N-hydroxy-4-(2-methyl-5-(trifluoromethyl)benzyl)-3-oxo-3,4-dihydro-2H-benzo[b][1,4]oxazine-6-carboxamide], the IC50 was under 0.025 µM. Work on O=C(NO)c1ccc2c(c1)N(Cc1ccc(C(F)(F)F)cc1)C(=O)CO2 [Compound I-35, N-hydroxy-3-oxo-4-(4-(trifluoromethyl)benzyl)-3,4-dihydro-2H-benzo[b][1,4]oxazine-6-carboxamide] yielded an IC50 of under 0.025 µM. With CS(=O)(=O)c1ccc(CN2C(=O)COc3cc(C(=O)NO)ccc32)cc1 [Compound I-90, N-hydroxy-4-(4-(methylsulfonyl)benzyl)-3-oxo-3,4-dihydro-2H-benzo[b][1,4]oxazine-7-carboxamide] the IC50 was 0.1 to 1 µM. Compound O=C(NO)c1ccc2c(c1)N(S(=O)(=O)c1ccccc1)CCO2 [Compound I-86, N-hydroxy-4-(phenylsulfonyl)-3,4-dihydro-2H-benzo[b][1,4]oxazine-6-carboxamide] has an IC50 of 0.1 to 1 µM. C=C(C)CN1CCOc2ccc(C(=O)NO)cc21 [Compound I-22, N-hydroxy-4-(2-methylallyl)-3,4-dihydro-2H-benzo[b][1,4]oxazine-6-carboxamide] gave an IC50 of 0.1 to 1 µM. Work on O=C(NO)c1ccc2c(c1)N(Cc1nc3ccccc3n1CC1CC1)CCO2 [Compound I-30, 4-((1-(cyclopropylmethyl)-1H-benzo[d]imidazol-2-yl)methyl)-N-hydroxy-3,4-dihydro-2H-benzo[b][1,4]oxazine-6-carboxamide] yielded an IC50 of 0.1 to 1 µM. With COc1cc(CN2CCOc3ccc(C(=O)NO)cc32)ccc1S(C)(=O)=O [Compound I-138, N-hydroxy-4-(3-methoxy-4-(methylsulfonyl)benzyl)-3,4-dihydro-2H-benzo[b][1,4]oxazine-6-carboxamide] the IC50 was 0.1 to 1 µM. CC(C)n1c(CN2CCOc3ccc(C(=O)NO)cc32)nc2ccccc21 [Compound I-28, N-hydroxy-4-((1-isopropyl-1H-benzo[d]imidazol-2-yl)methyl)-3,4-dihydro-2H-benzo[b][1,4]oxazine-6-carboxamide] gave an IC50 of over 1 µM. In the case of COc1ccc(C(=O)N2CCCc3ccc(C(=O)NO)cc32)cc1 [Compound I-112, N-hydroxy-1-(4-methoxybenzoyl)-1,2,3,4-tetrahydroquinoline-7-carboxamide], the IC50 is reported as 0.1 to 1 µM. Work on CN1CC(C(=O)NC2CCOCC2)Oc2ccc(C(=O)NO)cc21 (centres unmarked) [Compound I-1, N^6-hydroxy-4-methyl-N^2-(tetrahydro-2H-pyran-4-yl)-3,4-dihydro-2H-benzo[b][1,4]oxazine-2,6-dicarboxamide hydrochloride] yielded an IC50 of over 1 µM. For O=C(NO)c1ccc2c(c1)N(Cc1ccc(C(F)(F)F)cc1)CCO2 [Compound I-119, N-hydroxy-4-(4-(trifluoromethyl)benzyl)-3,4-dihydro-2H-benzo[b][1,4]oxazine-6-carboxamide], the IC50 was 0.025 to 0.1 µM. In the case of O=C(NO)c1ccc2c(c1)OC(C(=O)NC1CCOCC1)CN2Cc1ccccc1 (centres unmarked) [Compound I-8, 4-benzyl-N^7-hydroxy-N^2-(tetrahydro-2H-pyran-4-yl)-3,4-dihydro-2H-benzo[b][1,4]oxazine-2,7-dicarboxamide], the IC50 is reported as 0.1 to 1 µM. In the case of O=C(NO)c1ccc2c(c1)N(Cc1cn3ccsc3n1)CCO2 [Compound I-21, N-hydroxy-4-(imidazo[2,1-b]thiazol-6-ylmethyl)-3,4-dihydro-2H-benzo[b][1,4]oxazine-6-carboxamide], the IC50 is reported as 0.1 to 1 µM. In the case of O=C(NO)c1ccc2c(c1)N(CCc1ccc(Cl)cc1)C(=O)CO2 [Compound I-34, 4-(4-chlorophenethyl)-N-hydroxy-3-oxo-3,4-dihydro-2H-benzo[b][1,4]oxazine-6-carboxamide], the IC50 is reported as 0.025 to 0.1 µM. In the case of CN1CC(C(=O)N2CC3(CC3)c3ccccc32)Oc2cc(C(=O)NO)ccc21 (centres unmarked) [Compound I-9, N-hydroxy-4-methyl-2-(spiro[cyclopropane-1,3′-indoline]-1′-carbonyl)-3,4-dihydro-2H-benzo[b][1,4]oxazine-7-carboxamide], the IC50 is reported as under 0.025 µM. For O=C(NO)c1ccc2c(c1)N(Cc1ccccc1F)C(=O)CO2 [Compound I-69, 4-(2-fluorobenzyl)-N-hydroxy-3-oxo-3,4-dihydro-2H-benzo[b][1,4]oxazine-6-carboxamide], the IC50 was under 0.025 µM. Work on CC(C)(C)c1ccc(CN2C(=O)COc3ccc(C(=O)NO)cc32)cc1 [Compound I-70, 4-(4-(tert-butyl)benzyl)-N-hydroxy-3-oxo-3,4-dihydro-2H-benzo[b][1,4]oxazine-6-carboxamide] yielded an IC50 of under 0.025 µM. O=C(NO)c1ccc2c(c1)N(Cc1ccc(OC(F)(F)F)cc1)CCO2 [Compound I-19, N-hydroxy-4-(4-(trifluoromethoxy)benzyl)-3,4-dihydro-2H-benzo[b][1,4]oxazine-6-carboxamide] showed an IC50 of 0.025 to 0.1 µM. In the case of COc1ccc(CN2C(=O)C(C)(C)Oc3ccc(C(=O)NO)cc32)c(Cl)c1 [Compound I-159, 4-(2-chloro-4-methoxybenzyl)-N-hydroxy-2,2-dimethyl-3-oxo-3,4-dihydro-2H-benzo[b][1,4]oxazine-6-carboxamide], the IC50 is reported as 0.025 to 0.1 µM. In the case of O=C(NO)c1ccc2c(c1)N(Cc1ccc(S(=O)(=O)C(F)(F)F)cc1)C(=O)CO2 [Compound I-17, N-hydroxy-3-oxo-4-(4-((trifluoromethyl)sulfonyl)benzyl)-3,4-dihydro-2H-benzo[b][1,4]oxazine-6-carboxamide], the IC50 is reported as under 0.025 µM. CCC(C)N1C(=O)COc2ccc(C(=O)NO)cc21 (centres unmarked) [Compound I-46, 4-(sec-butyl)-N-hydroxy-3-oxo-3,4-dihydro-2H-benzo[b][1,4]oxazine-6-carboxamide] was tested, and the IC50 was 0.1 to 1 µM. With O=C(NO)c1ccc2c(c1)OC(C(=O)NCc1ccccc1)CN2Cc1ccccc1 (centres unmarked) [Compound I-12, N^2,4-dibenzyl-N^7-hydroxy-3,4-dihydro-2H-benzo[b][1,4]oxazine-2,7-dicarboxamide] the IC50 was 0.1 to 1 µM. Compound COc1ccc(CN2C(=O)COc3cc(C(=O)NO)ccc32)cc1 [Compound I-89, N-hydroxy-4-(4-methoxybenzyl)-3-oxo-3,4-dihydro-2H-benzo[b][1,4]oxazine-7-carboxamide] has an IC50 of 0.1 to 1 µM. Compound O=C(NO)c1ccc2c(c1)N(Cc1ccccc1)C(=O)CO2 [Compound I-32, 4-benzyl-N-hydroxy-3-oxo-3,4-dihydro-2H-benzo[b][1,4]oxazine-6-carboxamide] has an IC50 of 0.025 to 0.1 µM.
